Assay results published in patent US20080200454A1, “CARBON-LINKED TETRAHYDRO-PYRAZOLO-PYRIDINE MODULATORS OF CATHEPSIN S” (priority 2007, published 2008).

molecular target: Recombinant human cathepsin S (CatS) (Homo sapiens, UniProt P25774); experiment: Recombinant human cathepsin S (CatS) inhibition assay, fluorogenic substrate Z-Valine-Valine-Arginine-AMC; conditions: not given;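 note: Baculovirus-expressed CatS in pH 5.0 sodium acetate buffer with DTT and NaCl, fluorescence read each minute over 20 min, inhibition derived from rate slope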
Sequence (P25774 115-331): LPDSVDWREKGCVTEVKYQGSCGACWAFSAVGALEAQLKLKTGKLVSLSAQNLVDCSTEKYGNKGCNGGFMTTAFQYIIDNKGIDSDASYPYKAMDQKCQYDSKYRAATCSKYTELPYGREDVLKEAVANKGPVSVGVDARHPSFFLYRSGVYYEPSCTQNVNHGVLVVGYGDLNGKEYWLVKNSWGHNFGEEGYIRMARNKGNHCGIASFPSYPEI

SMILES	IC50 [nM]
CS(=O)(=O)N1CCc2c(c(-c3ccc(Cl)c(C#Cc4cnc5c(c4)CNCC5)c3)nn2CCCN2CCOCC2)C1 [Example 394, 3-({2-Chloro-5-[5-(methylsulfonyl)-1-(3-morpholin-4-ylpropyl)-4,5,6,7-tetrahydro-1H-pyrazolo[4,3-c]pyridin-3-yl]phenyl}ethynyl)-5,6,7,8-tetrahydro-1,6-naphthyridine]	3810
NC(=O)C(=O)N1CCc2c(c(-c3ccc(Cl)c(C#Cc4ccc(CNCc5ccc(Cl)cc5)cc4)c3)nn2CCCN2CCSCC2)C1 [Example 414, 2-[3-(4-Chloro-3-{[4-({[(4-chlorophenyl)methyl]amino}methyl)phenyl]ethynyl}phenyl)-1-(3-thiomorpholin-4-ylpropyl)-1,4,6,7-tetrahydro-5H-pyrazolo[4,3-c]pyridin-5-yl]-2-oxoacetamide]	30
CN(C)C(=O)N1CCc2c(c(-c3ccc(Cl)c(C#Cc4ccc(CNCc5ccc(Cl)cc5)cc4)c3)nn2CCCN2CCOCC2)C1 [Example 498, 3-(4-Chloro-3-{[4-({[(4-chlorophenyl)methyl]amino}methyl)phenyl]ethynyl}phenyl)-N,N-dimethyl-1-(3-morpholin-4-ylpropyl)-1,4,6,7-tetrahydro-5H-pyrazolo[4,3-c]pyridine-5-carboxamide]	4560
Cc1ccsc1CNCc1ccc(C#Cc2cc(-c3nn(CCCN4CCOC[C@@H]4C)c4c3CN(S(C)(=O)=O)CC4)ccc2Cl)cc1 [Example 431, 1-[4-({2-Chloro-5-[1-{3-[(3S)-3-methylmorpholin-4-yl]propyl}-5-(methylsulfonyl)-4,5,6,7-tetrahydro-1H-pyrazolo[4,3-c]pyridin-3-yl]phenyl}ethynyl)phenyl]-N-[(3-methyl-2-thienyl)methyl]methanamine]	170
NC(=O)N1CCc2c(c(-c3ccc(Cl)c(C#Cc4ccc(Cl)c(CNCc5ccccc5)c4)c3)nn2CCCN2CCSCC2)C1 [Example 291, 3-{4-Chloro-3-[(4-chloro-3-{[(phenylmethyl)amino]methyl}phenyl)ethynyl]phenyl}-1-(3-thiomorpholin-4-ylpropyl)-1,4,6,7-tetrahydro-5H-pyrazolo[4,3-c]pyridine-5-carboxamide]	30
CS(=O)(=O)N1CCc2c(c(-c3ccc(Cl)c(CCCCN4CCOCC4)c3)nn2CCCN2CCC(N3CCCC3=O)CC2)C1 [Example 113, 1-[1-(3-{3-[4-Chloro-3-(4-morpholin-4-yl-butyl)-phenyl]-5-methanesulfonyl-4,5,6,7-tetrahydro-pyrazolo[4,3-c]pyridin-1-yl}-propyl)-piperidin-4-yl]-pyrrolidin-2-one]	3580
CS(=O)(=O)N1CCc2c(c(-c3ccc(Cl)c(CCc4ccc(Oc5ccccc5)cc4)c3)nn2CCCN2CCOCC2)C1 [Example 55, 3-{4-Chloro-3-[2-(4-phenoxy-phenyl)-ethyl]-phenyl}-5-methanesulfonyl-1-(3-morpholin-4-yl-propyl)-4,5,6,7-tetrahydro-1H-pyrazolo[4,3-c]pyridine]	1070
NC(=O)C(=O)N1CCc2c(c(-c3ccc(Cl)c(C#Cc4ccc5c(c4)CN(Cc4ccc(Cl)cc4)CC5)c3)nn2CCCN2CCOCC2)C1 [Example 159, 2-{3-[4-Chloro-3-({2-[(4-chlorophenyl)methyl]-1,2,3,4-tetrahydroisoquinolin-7-yl}ethynyl)phenyl]-1-(3-morpholin-4-ylpropyl)-1,4,6,7-tetrahydro-5H-pyrazolo[4,3-c]pyridin-5-yl}-2-oxoacetamide]	60
C[C@@H]1COCCN1CCCn1nc(-c2ccc(Cl)c(C#Cc3ccc(CNCc4ccc(Cl)cc4)cc3)c2)c2c1CCN(S(C)(=O)=O)C2 [Example 536, 1-[4-({2-Chloro-5-[1-{3-[(3R)-3-methylmorpholin-4-yl]propyl}-5-(methylsulfonyl)-4,5,6,7-tetrahydro-1H-pyrazolo[4,3-c]pyridin-3-yl]phenyl}ethynyl)phenyl]-N-[(4-chlorophenyl)methyl]methanamine]	200
COC(=O)C1NCCc2cc(C#Cc3cc(-c4nn(CCCN5CCOCC5)c5c4CN(S(C)(=O)=O)CC5)ccc3Cl)ccc21 (centres unmarked) [Example 208, Methyl 6-({2-chloro-5-[5-(methylsulfonyl)-1-(3-morpholin-4-ylpropyl)-4,5,6,7-tetrahydro-1H-pyrazolo[4,3-c]pyridin-3-yl]phenyl}ethynyl)-1,2,3,4-tetrahydroisoquinoline-1-carboxylate]	3130

same assay, conditions: CatS IC50

SMILES	IC50 [nM]
CS(=O)(=O)N1CCc2c(c(-c3ccc(Cl)c(C#Cc4ccc(CN5CCCCC5)cc4)c3)nn2CCCN2CCOCC2)C1 [Example 79, 3-[4-Chloro-3-(4-piperidin-1-ylmethyl-phenylethynyl)-phenyl]-5-methanesulfonyl-1-(3-morpholin-4-yl-propyl)-4,5,6,7-tetrahydro-1H-pyrazolo[4,3-c]pyridine]	1500
CS(=O)(=O)N1CCc2c(c(-c3ccc(Cl)c(C#Cc4ccc(CNCc5ccncc5)cc4)c3)nn2CCCN2CCOCC2)C1 [Example 405, 1-[4-({2-Chloro-5-[5-(methylsulfonyl)-1-(3-morpholin-4-ylpropyl)-4,5,6,7-tetrahydro-1H-pyrazolo[4,3-c]pyridin-3-yl]phenyl}ethynyl)phenyl]-N-(pyridin-4-ylmethyl)methanamine]	290
CC(C)(C)OC(=O)N1CCc2ccc(C#Cc3cc(-c4nn(CCCN5CCC(C(N)=O)CC5)c5c4CN(S(C)(=O)=O)CC5)ccc3Cl)cc2C1 [Example 374, 1,1-Dimethylethyl 7-({5-[1-{3-[4-(aminocarbonyl)piperidin-1-yl]propyl}-5-(methylsulfonyl)-4,5,6,7-tetrahydro-1H-pyrazolo[4,3-c]pyridin-3-yl]-2-chlorophenyl}ethynyl)-3,4-dihydroisoquinoline-2(1H)-carboxylate]	160
CS(=O)(=O)N1CCc2c(c(-c3ccc(Cl)c(C#Cc4ccc(NCC#N)cc4)c3)nn2CCCN2CCOCC2)C1 [Example 322, {[4-({2-Chloro-5-[5-(methylsulfonyl)-1-(3-morpholin-4-ylpropyl)-4,5,6,7-tetrahydro-1H-pyrazolo[4,3-c]pyridin-3-yl]phenyl}ethynyl)phenyl]amino}acetonitrile]	730
CS(=O)(=O)N1CCc2c(c(-c3ccc(Cl)c(C#Cc4cccc(CNCc5ccc(Cl)cc5)c4)c3)nn2CCCN2CCOCC2)C1 [Example 438, 1-[3-({2-Chloro-5-[5-(methylsulfonyl)-1-(3-morpholin-4-ylpropyl)-4,5,6,7-tetrahydro-1H-pyrazolo[4,3-c]pyridin-3-yl]phenyl}ethynyl)phenyl]-N-[(4-chlorophenyl)methyl]methanamine]	720
Cc1ccsc1CNCc1ccc(C#Cc2cc(-c3nn(CCCN4CCOCC4)c4c3CN(S(C)(=O)=O)CC4)ccc2Cl)cc1 [Example 424, 1-[4-({2-Chloro-5-[5-(methylsulfonyl)-1-(3-morpholin-4-ylpropyl)-4,5,6,7-tetrahydro-1H-pyrazolo[4,3-c]pyridin-3-yl]phenyl}ethynyl)phenyl]-N-[(3-methyl-2-thienyl)methyl]methanamine]	200
CC(C)CNCc1cccc(CCc2cc(-c3nn(CCCN4CCOCC4)c4c3CN(S(C)(=O)=O)CC4)ccc2Cl)c1 [Example 531, N-{[3-(2-{2-Chloro-5-[5-(methylsulfonyl)-1-(3-morpholin-4-ylpropyl)-4,5,6,7-tetrahydro-1H-pyrazolo[4,3-c]pyridin-3-yl]phenyl}ethyl)phenyl]methyl}-2-methylpropan-1-amine]	640
CS(=O)(=O)N1CCc2c(c(-c3ccc(Cl)c(C#Cc4ccc5c(c4)CN(C4CC4)CC5)c3)nn2CCCN2CCN(C3CC3)CC2)C1 [Example 276, 7-[(2-Chloro-5-{1-[3-(4-cyclopropylpiperazin-1-yl)propyl]-5-(methylsulfonyl)-4,5,6,7-tetrahydro-1H-pyrazolo[4,3-c]pyridin-3-yl}phenyl)ethynyl]-2-cyclopropyl-1,2,3,4-tetrahydroisoquinoline]	180
NC(=O)N1CCc2c(c(-c3ccc(Cl)c(C#Cc4ccc(CNCc5ccc(Cl)cc5)cc4)c3)nn2CCCN2CCN(C3CCC3)CC2)C1 [Example 460, 3-(4-Chloro-3-{[4-({[(4-chlorophenyl)methyl]amino}methyl)phenyl]ethynyl}phenyl)-1-[3-(4-cyclobutylpiperazin-1-yl)propyl]-1,4,6,7-tetrahydro-5H-pyrazolo[4,3-c]pyridine-5-carboxamide]	170
CS(=O)(=O)N1CCc2c(c(-c3ccc(Cl)c(C#Cc4ccc(CNCc5ccccc5)c(Cl)c4)c3)nn2CCCN2CCOCC2)C1 [Example 545, 1-[2-Chloro-4-({2-chloro-5-[5-(methylsulfonyl)-1-(3-morpholin-4-ylpropyl)-4,5,6,7-tetrahydro-1H-pyrazolo[4,3-c]pyridin-3-yl]phenyl}ethynyl)phenyl]-N-(phenylmethyl)methanamine]	270
CC(C)(C)OC(=O)N1CCC(C2CCN(C[C@H](O)Cn3nc(-c4ccc(Cl)c(C#Cc5cccnc5)c4)c4c3CCN(S(C)(=O)=O)C4)CC2)CC1 [Example 235, 1,1-Dimethylethyl 1′-[(2S)-3-{3-[4-chloro-3-(pyridin-3-ylethynyl)phenyl]-5-(methylsulfonyl)-4,5,6,7-tetrahydro-1H-pyrazolo[4,3-c]pyridin-1-yl}-2-hydroxypropyl]-4,4′-bipiperidine-1-carboxylate]	330
C[C@H]1COCCN1CCCn1nc(-c2ccc(Cl)c(C#Cc3ccc(Cl)c(C(=O)NCCN4CCOCC4)c3)c2)c2c1CCN(C(=O)C(N)=O)C2 [Example 168, 5-{[5-(5-[Amino(oxo)acetyl]-1-{3-[(3S)-3-methylmorpholin-4-yl]propyl}-4,5,6,7-tetrahydro-1H-pyrazolo[4,3-c]pyridin-3-yl)-2-chlorophenyl]ethynyl}-2-chloro-N-(2-morpholin-4-ylethyl)benzamide]	30
CS(=O)(=O)N1CCc2c(c(-c3ccc(Cl)c(C#Cc4cccc(CNCC5CCOCC5)c4)c3)nn2CCCN2CCOCC2)C1 [Example 185, 1-[3-({2-Chloro-5-[5-(methylsulfonyl)-1-(3-morpholin-4-ylpropyl)-4,5,6,7-tetrahydro-1H-pyrazolo[4,3-c]pyridin-3-yl]phenyl}ethynyl)phenyl]-N-(tetrahydro-2H-pyran-4-ylmethyl)methanamine]	520
